The record followed here is patent US10406098B2, “Injection solution comprising a non-nucleoside reverse-transcriptase inhibitor and poly(lactide-co-glycolide)” (Evonik Roehm GmbH, priority 2015, dated 2019).

Structures are written as SMILES.

A short description of this data set: Release test in phosphate buffer saline pH 7.4 (standard body-fluid single compartment release experiment). It counts as physicochemical. As to conditions: PBS pH 7.4, samples at 0, 1, 2, 4, 24 and 96 hours, HPLC; comparative statement. The method, then:
Example Performance in a standard body-fluid single compartment release experiment Release Test: 100 ml of phosphate buffer saline pH 7.4 (PBS, British Pharmacopoeia) are given to a 200 ml volumetric flask. […] PBS-buffer is filled up to 200 ml. API release studies were performed in triplicate. Samples (2 ml) for HPLC analysis were taken at 0, 1, 2, 4, 24 and 96 hours and centrifuged for 5 minutes at 13400 rpm the supernatant was injected according to the HPLC method in Table 5. At 2, 4 and 24 hours 100 ml of the dissolution medium were pulled and 100 ml of fresh buffer was added (PBS 7.4). [table]

On to `O=C1Nc2ccc(Cl)cc2[C@@](C#CC2CC2)(C(F)(F)F)O1` [Efavirenz], for which the “release / release rate of the active ingredient” value is “much higher”.
